{"source": "paper PMC5989765", "about": "“The safety, tolerability, and pharmacokinetic profile of GSK2838232, a novel 2nd generation HIV maturation inhibitor, as assessed in healthy subjects” (Pharmacology Research & Perspectives, 2018)", "key": {"[1]": {"assay": "Study HMI116787: single ascending dose, food effect and RTV boosting, SDD PiB, healthy subjects", "type": "in vivo, human", "settings": "for Cmax / Tmax / concentration at 24 h / AUC / half-life: human, plasma, oral; for Cmax / Tmax / concentration at 24 h / AUC / half-life / CL/F: fasted; for Cmax / AUC / half-life / CL/F: geometric mean (95% CI); for Tmax / concentration at 24 h: median (range); for concentration at 24 h: read-out: C24; for AUC: read-out: AUC(0‐∞); for half-life: read-out: t½ (converted)", "method": "This study was a first‐in‐human, double‐blind, randomized, placebo‐controlled, single dose escalation study of GSK2838232 in healthy subjects conducted in two sequential cohorts with four dosing visits in each cohort. At each visit in each cohort, 6 out of the 8 subjects were randomized to receive the active dose, and 2 out of the 8 subjects were randomized to placebo. Cohort 1 tested escalating doses of 5, 10, and 20 mg GSK2838232 as a Spray Dried Dispersion (SDD) delivered as a powder‐in‐bottle (PiB) suspension; Cohort 2 tested the same formulation at doses of 50 and 100 mg, the effect of a high‐fat breakfast on a 50 mg dose, and the impact of steady‐state dosing of 100 mg once‐daily (QD) RTV on the PK of a single 10 mg dose of GSK2838232 (administered on Day 10 of the 12 days of RTV dosing). All doses were administered in a fasted state, except in the food effect portion of the study.\n(§1) Blood samples were taken via an indwelling cannula or by direct venipuncture, collected into a di‐potassium ethylenediaminetetraacetic acid (K2 EDTA) tube, and placed on wet ice. Samples were centrifuged at approximately 1500g for 10 minutes at approximately 4°C. Exactly 500 μL of the resulting plasma was transferred into labeled 1.4 mL Matrix TrakMate Tubes containing exactly 500 μL of 50 mmol/L citrate buffer, pH 4.0, and mixed well. When 500 μL of plasma was not able to be transferred, the ratio of plasma to citrate buffer was kept at 1:1. Buffered plasma samples were kept on ice and frozen at −70°C within 1 hour of collection. Plasma samples were analyzed for GSK2838232 using a validated analytical method based on protein precipitation, followed by high performance liquid chromatography with tandem mass spectrometry (HPLC/MS/MS) analysis.\n(§2) Extracts were analyzed using HPLC (Shimadzu, Nexera, 30 series) and tandem mass spectrometry detection (HPLC‐MS/MS). The mass spectrometer used was an API‐5500 using IonSpray interface (500 V) in positive mode monitoring. The mass transitions were 809.5 to 255.1 and 816.5 to 262.1 for GSK2838232 and [2H7] GSK2838232 (the isotopically labeled internal standard), respectively. The chromatographic conditions utilized a Waters Acquity UPLC BEH C18 column (50 × 2.1 mm, 1.7 μm) with mobile phases consisting of 1 mmol/L ammonium formate:formic acid (100:0.005) (mobile phase A) and acetonitrile:formic acid (100:0.1) (mobile phase B) at a flow rate of 0.6 mL/min, with pump B at 63% held for 2 minutes. The assay was validated to have precision (%RSD) of 0.7%‐6.5% (within‐run) and 1.0%‐5.9% RSD (between‐run) and with accuracy (%bias) of 0.0%‐1.6%. […] The lower limit of quantification (LLQ) was 0.5 ng/mL, using a 50 μL aliquot of K2EDTA acidified plasma. The higher limit of quantification (HLQ) was 500 ng/mL.\n(§3) The PK parameters were calculated by standard noncompartmental analysis based on actual sampling times using WinNonlin Version 6.3 or higher. Estimation of AUC used the linear up/log down trapezoidal rule."}, "[2]": {"assay": "Study 204953 Part 1B: relative bioavailability capsule versus API PiB and food effect, with RTV", "type": "in vivo", "method": "This study was planned as an extension of the previously conducted single‐ and multiple‐dose escalation studies described above. It was a double‐blind, placebo‐controlled, single and repeat dose escalation study of micronized API GSK2838232 with RTV conducted in three parts (Part 1A, Part 1B, and Part 2).\nIn Part 1A, a cohort of subjects was given single doses of 50, 100, and 250 mg of GSK2838232 with RTV, following 2 days of RTV predosing, in a sequential dose‐escalation design. Part 1B studied the relative bioavailability of GSK2838232 given as 100 mg (2 × 50 mg) capsules versus the reference API (PiB) in a two‐period crossover design with RTV, following 2 days of RTV predosing. In Period 3, subjects took the capsule formulation and RTV with a moderate fat meal (30% of calories from fat).\nas §1, §2, §3\nFor the assessment of relative bioavailability of the capsule formulation compared to the PiB suspension and of the food effect using the capsule formulation (all with RTV), PK parameters were separately analyzed for each treatment using a mixed effects model with fixed effect terms for period and treatment following loge transformation. Subject was treated as a random effect in the model. Point estimates and their associated 90% CIs were constructed for the differences in PK parameter values between the test and reference treatments. The point estimates and their associated 90% CIs were then back‐transformed to provide point estimates and 90% CIs for the ratios of PK parameters from test and reference treatments on the original scale."}, "[3]": {"settings": "50 mg Fed (high, 60% fat meal) versus 50 mg fasted, SDD PiB formulation, Study HMI116787"}, "[4]": {"settings": "RTV for 10 days prior to 10 mg SDD, Study 116787"}, "[5]": {"settings": "single 5 mg SDD PiB, without ritonavir, Study HMI116787"}, "[6]": {"settings": "single 10 mg SDD PiB, with ritonavir 100 mg QD (Day 10 of 12), Study HMI116787"}, "[7]": {"settings": "single 10 mg SDD PiB, without ritonavir, Study HMI116787"}, "[8]": {"settings": "single 20 mg SDD PiB, without ritonavir, Study HMI116787"}, "[9]": {"settings": "single 50 mg SDD PiB, without ritonavir, Study HMI116787"}, "[10]": {"settings": "single 100 mg SDD PiB, without ritonavir, Study HMI116787"}, "[11]": {"settings": "100 mg Fed (moderate, 30% fat meal) versus 100 mg fasted, API capsule formulation with RTV, Study 204953"}, "[12]": {"settings": "Capsule : API PiB, single 100 mg + ritonavir, Study 204953"}}, "note": "Read-outs that look alike come from different tables or passages of the source."}
{"smiles": "CC(C)C1=C2[C@H]3CC[C@@H]4[C@@]5(C)CC[C@H](OC(=O)CC(C)(C)C(=O)O)C(C)(C)[C@@H]5CC[C@@]4(C)[C@]3(C)CC[C@@]2([C@@H](O)CN(CCN(C)C)Cc2ccc(Cl)cc2)CC1=O", "note": "[GSK2838232]", "values": [{"measurement": "Geometric least square mean ratio [90% CI], AUC(0‐∞)", "setting": "[1]; [3]", "value": "1.61 (1.266, 2.053)"}, {"measurement": "Geometric least square mean ratio [90% CI], C max", "setting": "[1]; [3]", "value": "1.60 (0.995, 2.566)"}, {"measurement": "change in t½ with RTV", "setting": "[1]; [4]", "value": "approximately doubled"}, {"measurement": "increase in 24‐h concentration (C24) with RTV", "setting": "[1]; [4]", "value": "~6.4", "unit": "fold"}, {"measurement": "increase in AUC(0‐t) with RTV", "setting": "[1]; [4]", "value": "approximately 10 fold"}, {"measurement": "increase in C max with RTV", "setting": "[1]; [4]", "value": "~3", "unit": "fold"}, {"measurement": "bioavailability after meal relative to the fasted state", "setting": "[1]; SDD PiB formulation, high‐fat (60%) meal, Study HMI116787", "value": "approximately 1.6 fold"}, {"measurement": "Cmax", "setting": "[1]; [5]", "value": 1.52, "unit": "ng/mL"}, {"measurement": "Tmax", "setting": "[1]; [5]", "value": 2.24, "unit": "h"}, {"measurement": "concentration at 24 h", "setting": "[1]; [5]", "value": 0, "unit": "ng/mL"}, {"measurement": "Cmax", "setting": "[1]; [6]", "value": 9.1, "unit": "ng/mL"}, {"measurement": "AUC", "setting": "[1]; [6]", "value": 389, "unit": "ng·h/mL"}, {"measurement": "half-life", "setting": "[1]; [6]", "value": 33.7, "unit": "h"}, {"measurement": "Tmax", "setting": "[1]; [6]", "value": 4, "unit": "h"}, {"measurement": "concentration at 24 h", "setting": "[1]; [6]", "value": 4.64, "unit": "ng/mL"}, {"measurement": "Cmax", "setting": "[1]; [7]", "value": 3.49, "unit": "ng/mL"}, {"measurement": "Tmax", "setting": "[1]; [7]", "value": 1.76, "unit": "h"}, {"measurement": "concentration at 24 h", "setting": "[1]; [7]", "value": 0.63, "unit": "ng/mL"}, {"measurement": "Cmax", "setting": "[1]; [8]", "value": 8.09, "unit": "ng/mL"}, {"measurement": "AUC", "setting": "[1]; [8]", "value": 104, "unit": "ng·h/mL"}, {"measurement": "half-life", "setting": "[1]; [8]", "value": 14.1, "unit": "h"}, {"measurement": "Tmax", "setting": "[1]; [8]", "value": 1.75, "unit": "h"}, {"measurement": "concentration at 24 h", "setting": "[1]; [8]", "value": 1.54, "unit": "ng/mL"}, {"measurement": "Cmax", "setting": "[1]; [9]", "value": 13.1, "unit": "ng/mL"}, {"measurement": "AUC", "setting": "[1]; [9]", "value": 195, "unit": "ng·h/mL"}, {"measurement": "half-life", "setting": "[1]; [9]", "value": 17.4, "unit": "h"}, {"measurement": "Tmax", "setting": "[1]; [9]", "value": 2.02, "unit": "h"}, {"measurement": "concentration at 24 h", "setting": "[1]; [9]", "value": 3.11, "unit": "ng/mL"}, {"measurement": "Cmax", "setting": "[1]; [10]", "value": 23.7, "unit": "ng/mL"}, {"measurement": "AUC", "setting": "[1]; [10]", "value": 385, "unit": "ng·h/mL"}, {"measurement": "half-life", "setting": "[1]; [10]", "value": 18.8, "unit": "h"}, {"measurement": "Tmax", "setting": "[1]; [10]", "value": 2.75, "unit": "h"}, {"measurement": "concentration at 24 h", "setting": "[1]; [10]", "value": 5.93, "unit": "ng/mL"}, {"measurement": "CL/F", "setting": "[1]; [6]", "value": "25.7 (18.8, 35.1) L/h"}, {"measurement": "CL/F", "setting": "[1]; [8]", "value": "193 (147, 254) L/h"}, {"measurement": "CL/F", "setting": "[1]; [9]", "value": "256 (203, 324) L/h"}, {"measurement": "CL/F", "setting": "[1]; [10]", "value": "260 (202, 335) L/h"}, {"measurement": "increase in C max by RTV", "setting": "[1]; single dose after steady‐state predosing with RTV 100 mg QD", "value": 3, "unit": "fold"}, {"measurement": "Geometric least square mean ratio [90% CI], AUC(0‐∞)", "setting": "[2]; [11]", "value": "1.58 (1.412,1.777)"}, {"measurement": "Geometric least square mean ratio [90% CI], C max", "setting": "[2]; [11]", "value": "1.62 (1.376,1.911)"}, {"measurement": "Ratio of Geometric Least Square Means, AUC(0‐∞)", "setting": "[2]; [12]", "value": 1.43}, {"measurement": "Ratio of Geometric Least Square Means, C max", "setting": "[2]; [12]", "value": 1.58}, {"measurement": "bioavailability after meal relative to the fasted state", "setting": "[2]; capsule formulation with RTV, moderate fat (30%) meal, Study 204953", "value": "approximately 1.6 fold"}, {"measurement": "C24, capsule relative to PiB suspension", "setting": "[2]; single 100 mg with RTV", "value": 1.4, "unit": "fold"}, {"measurement": "C max, capsule relative to PiB suspension", "setting": "[2]; single 100 mg with RTV", "value": 1.6, "unit": "fold"}, {"measurement": "t½ geometric LS mean ratio, capsule versus PiB", "setting": "[2]; single 100 mg with RTV, data not shown", "value": "no difference"}]}
